Patent US20080058324A1, “Alpha-Keto Carbonyl Calpain Inhibitors” (SANTHERA PHARMACEUTICALS (SCHWEIZ) AG, priority 2004, published 2008)

Legend:
[1] = test system: utrophin expression in human DMD myotubes; experiment: Utrophin Expression Assay in Human Myotubes; format: cell-based; conditions: 50 nM test compound
Method: Utrophin induction was determined by a method which was similar to a method of I. Courdier-Fruh et al., Neuromuscular Disord., 2002, 12, S95-S104.
Primary human muscle cell cultures were prepared from muscle biopsies taken during orthopedic surgery from Duchenne patients (provided by the Association Francaise contre les Myopathies). Cultures were prepared and maintained according to standard protocols. Induction of utrophin expression in human DMD myotubes was assayed at 50 nM or 500 nM of test compound added in differentiation medium. Normalized utrophin protein levels are determined after 5-6 d of incubation by cell-based ELISA with a mouse monoclonal antibody to the aminoterminal portion of utrophin (NCL-DRP2, Novocastra Laboratories). For calibration, the cell density and differentiation was determined by absorbance measurements of the total dehydrogenase enzyme activity in each well using the colorimetric CellTiter 96®AQ One Solution Reagent Proliferation Assay (Promega) according to the manufacturer's recommendation. […] Utrophin protein levels were determined immunologically with utrophin-specific primary antibody and with anappropriate peroxidase-coupled secondary antibody (Jackson ImmunoResearch Laboratories) using QuantaBlu™ Fluorogenic Peroxidase Substrate Kit (Pierce) for detection. […] The primary readout of this signal is presented in arbitrary units. […]

[2] = test system: Primary fibroblasts from donors with Friedreich Ataxia (FRDA); experiment: BSO Assay (cell viability of Friedreich Ataxia fibroblasts under BSO oxidative stress); format: cell-based; conditions: Homo sapiens, Fibroblast
Method: Primary fibroblasts were derived from donors with molecular diagnosis for Friedreich Ataxia (FRDA) and control donors with no mitochondrial disease. Cell lines were obtained from Coriell Cell Repositories (Camden, N.J.; catalog numbers GM04078, GM08402 and GM08399 respectively). All cell types were diagnosed on the molecular level for intronic GAA triplet repeat length of at least 400-450 repeats using a PCR-based method. Experiments were carried out as described in the literature (M. L. Jauslin et al., Human Mol. Genet., 2002, 11, 3055-3063): Cells were seeded in microtiter plates at a density of 4′000 cells per 100 μl in growth medium consisting of 25% (v/v) M199 EBS and 64% (v/v) MEM EBS without phenol red (Bioconcept, Allschwil, Switzerland) supplemented with 10% (v/v) fetal calf serum (PAA Laboratories, Linz, Austria), 100 U/ml penicillin, 100 μg/ml streptomycin (PAA Laboratories, Linz, Austria), 10 μg/ml insulin (Sigma, Buchs, Switzerland), 10 ng/ml EGF (Sigma, Buchs, Switzerland), 10 ng/ml bFGF (PreproTech, Rocky Hill, N.J.) and 2 mM glutamine (Sigma, Buchs, Switzerland). The cells were incubated in the presence of various test compounds for 24 h before addition of L-buthionine-(S,R)-sulfoximine (BSO) to a final concentration of 1 mM. Cell viability was measured after the first signs of toxicity appeared in the BSO-treated controls (typically after 16 to 48 h). The cells were stained for 60 min at room temperature in PBS with 1.2 μM calceinAM and 4 μM ethidium homodimer (Live/Dead assay, Molecular Probes, Eugene, Oreg.). Fluorescence intensity was measured with a Gemini Spectramax XS spectrofluorimeter (Molecular Devices, Sunnyvale, Calif.) using excitation and emission wavelengths of 485 nm and 525 nm respectively.

mdx mouse = mdx mouse model for Duchenne Muscular Dystrophy, longterm treatment; format: in vivo; conditions: mdx mice, 4 weeks; for adverse effects upon longterm treatment: 20 mg/kg every 2nd day
Method: The mdx mouse is a well established animal model for Duchenne Muscular Dystrophy (Bulfield G., Siller W. G., Wight P. A., Moore K. J., X chromosome-linked muscular dystrophy (mdx) in the mouse, Proc. Natl. Acad. Sci. USA., 1984, 81(4), 1189-1192). Selected compounds were tested in longterm treatments of mdx mice, according to the procedures described below.
Mouse strains: C57BL/10scsn and C57BL/10scsn mdx mouse strains were purchased at The Jackson Laboratory (ME, USA) and bred inhouse. Mouse males were sacrificed at the age of 3 or 7 weeks by CO2 asphyxiation.
Treatment: Compounds were dissolved in 50% PEG, 50% saline solution and applied by i.p. injection.
Histology: Tibialis anterior (TA), quadriceps (Quad), and diaphragm (Dia) muscles were collected and mounted on cork supports using gum tragacanth (Sigma-Aldrich, Germany). The samples were snap-frozen in melting isopentane and stored at −80° C. 12 μm thick cryosections of the mid-belly region of muscles were prepared. For staining, sections were air dried and fixed with 4% PFA in PBS for 5 minutes, washed 3 times with PBS and incubated over night at 4° C. in PBS containing 2 μg/ml Alexa Fluor™ 488 conjugated wheat-germ agglutinin (WGA-Alexa, Molecular Probes, Eugen, Oreg., USA) to stain membrane-bound and extracellular epitopes and 1 μg/ml 4′,6-diamidino-2-phenylindole (DAPI; Molecular Probes) to stain nuclei.
Image acquisition and analysis: Fluorescence microscopy images of both labels were acquired using a digital camera (ColorView II, Soft Imaging System, Müinster, Germany) coupled to a fluorescence microscope (Vanox S, Olympus, Tokyo, Japan). Combination of these two stainings to a composite image, assembling of several images to a complete image of the entire muscle cross-section and further semi-automated analysis was performed using the image analysis program AnalySIS (Soft Imaging System). Image analysis of 1200-2900 muscle fibers in each section was performed in three steps: 1) determination of the muscle fiber boundaries, 2) determination of the muscle fiber size, and 3) determination of the percentage of muscle fibers containing centralized nuclei. Six different geometrical parameters were tested for the determination of the muscle fiber size: (a) the “minimal feret” (the minimum distance of parallel tangents at opposing borders of the muscle fiber), (b) the “area”, (c) the “minimal inner diameter” (the minimum diameter through the center of the muscle fiber), (d) the “minimal diameter” (the minimum diameter of a muscle fiber for angles in the range 0° through 179° with step width 1°, (e) the “minimal outer diameter” (the minimum diameter through the muscle fiber from outer border to outer border), and (f) the “perimeter”. The variance coefficient of the muscle fiber size is defined as follows: variance coefficient=(standard deviation of the muscle fiber size/mean of the muscle fiber size of the section)*[…]. For statistical analysis of different variance coefficient values Mann-Whitney U test was used.
Selected Examples of the present invention were active in the mdx mouse model at 20 mg/kg every 2nd day, using 3 week old mice and a treatment period of 4 weeks (N=5-10).

[3] = 20 mg/kg every 2nd day i.p., diaphragm, vs vehicle-treated mdx mice
[4] = 20 mg/kg every 2nd day i.p., tibialis anterior, vs vehicle-treated mdx mice

## CCNC(=O)C(=O)C(Cc1ccc(Cl)cc1)NC(=O)C(NC(=O)C(Cc1cccc2ccccc12)NC(=O)CCCCc1cccs1)C(C)C (stereo not shown) [Example 22]
[1]
  UTR Induction @50 nM: 117%
[2]
  EC50: 10 nM
other
  melting point: 238 to 241 °C

## CCNC(=O)C(=O)C(Cc1ccc(OC)cc1)NC(=O)C(NC(=O)C(CCc1ccccc1)NC(=O)CCc1cccs1)C(C)C (stereo not shown) [Example 520]
[1]
  UTR Induction @50 nM: 134%
[2]
  EC50: < 1 nM
Mdx mouse; [3]
  decrease in the variance coefficient of the muscle fiber size, Dia: 40%
  reduction of the percentage of centralized nuclei, Dia: 26%
Mdx mouse; 20 mg/kg every 2nd day i.p., quadriceps, vs vehicle-treated mdx mice
  decrease in the variance coefficient of the muscle fiber size, Quad: 31%
Mdx mouse; [4]
  reduction of the percentage of centralized nuclei, TA: 13%
Mdx mouse
  adverse effects upon longterm treatment: No prominent adverse effects
other
  melting point: 238 to 240 °C

## CCNC(=O)C(=O)[C@H](Cc1ccc(Cl)cc1)NC(=O)[C@@H](NC(=O)[C@H](Cc1ccccc1)NC(=O)CCCCc1cccs1)C(C)C [Example 1]
[2]
  EC50: 700 nM
Mdx mouse; [3]
  decrease in the variance coefficient of the muscle fiber size, Dia: 26%
Mdx mouse; [4]
  decrease in the variance coefficient of the muscle fiber size, TA: 26%
  reduction of the percentage of centralized nuclei, TA: 17%
Mdx mouse
  adverse effects upon longterm treatment: No prominent adverse effects
